Data taken from patent publication US9856218B2, “Inhibitors of PRMT5 and methods of their use” (Ohio State Innovation Foundation, priority 2013, dated 2018).

Tests used:
[1] = molecular target: T1, affinity-purified hSWI/SNF associated PRMT5 (Homo sapiens, UniProt O14744); test: Histone methyltransferase assay, [3H]SAM; format: biochemical; conditions: for inhibition of PRMT5 methylase activity, potency among inhibitors: FIG. 33A
T1 construct: made in house
Description: (§1) Histone methylation was performed in the presence of DMSO, and 1-40 μM inhibitor compounds. […] After 1.5 h incubation at 30° C., reaction mixtures were spotted on Whatman P-81 filter paper, washed five times with 10 mL of […] sodium carbonate buffer (pH 9.0) to remove unincorporated [3H]SAM, and methylated peptides were detected by scintillation counting.
Type II PRMT enzymes repress gene transcription and symmetrically dimethylate H3R8 and H4R3, while type I PRMT enzymes activate gene transcription and asymmetrically dimethylate H4R3. Purified PRMT5, PRMT1, PRMT4 and PRMT7 were obtained to perform the assay.
as §1, with “HLCL-32, HLCL-10, HLCL-61 and HLCL-64.” for “inhibitor compounds.”, “After a” for “After”, “C.” for “C.,”, “[^3H]SAM,” for “[3H]SAM,”

[2] = 24 hr Quick MTD test, one mouse for each dose; format: in vivo
Description: Controlled shRNA depletion was evaluated in a murine lymphoma model (Eμ-BRD2 (Chung, J., et al. (2013) J. Biological Chemistry 288, 35534-35547)) and human xenograft model of glioblastoma (Yan, F., et al (2014) Cancer Research In Press). Referring to FIG. 62A, controlled expression of a PRMT5 shRNA (solid line) but not control shRNA (dashed line) leads to 100% survival of mice engrafted primary DLBCL tumor cells. […] The maximum tolerated dose (MTD, single dose) was identified at 50 mg/kg (see Table 11 below). A sub-toxic dose (25 mg/kg) was used to treat FcMCL mice. Control mice developed peripheral blood and lymph node tumor burden starting day 20 post-engraftment.

[3] = tested on: primary AML patient samples; test: Differentiation marker CD11b, flow cytometry; format: cell-based, human; conditions: 25 μM, compared with vehicle-treated cells
Description: (§2) Cells (1×10^6) were washed and passed through a […] filter (BD), then re-suspended in 200 μL binding buffer with or without 5 μL AnnexinV (for apoptosis detection) or CD11b (for maturation detection) antibody (BD Biosciences, Billerica, Mass.). After 15 min. of incubation cells were washed with PBS, re-suspended in 500 μL flow buffer and analyzed on a FACSCalibur cytometer (BD Biosciences). For apoptosis detection, 5 μL propidium iodide (PI) (BD Biosciences) was added to cell before running flow cytometry. Sorting for GFP-positive cells was carried out on BD FACS Aria instrument after filtering and washing cells 2× with ice cold PBS supplemented with 2% calf bovine serum and re-suspending in FACS buffer.
(§3) PRMT5 inhibition by C12 was also effective in promoting apoptosis and differentiation.
The increase in CD11b expression in AML cells lines followed a dose-dependent manner.

[4] = tested on: Mantle cell lymphoma cell line Jeko; test: MTS anti-proliferation assay; format: cell-based
Description: MTS proliferation assays were performed according the CellTiter 96™ Aqueous Cell Proliferation Assay Technical Bulletin (Promega, Madison, Wis.). 5×10^5 cells were plated in each well of a 96-well plate at 37° C. and assayed for proliferation at 24, 48, and 72 hr. Proliferation signal at 50% of control was used as IC50 for growth.
Following the synthesis of 14 compounds, the anti-proliferation and pro-apoptotic activities of those compounds was evaluated in Mantle cell lymphoma cell line Jeko. Replicate cultures of Jeko were incubated in DMSO and the compounds for 24, 48 and 72 hours. FITC-Annexin V-PI stained flow cytometry was used to detect the apoptotic population of cells (Table 4).

[5] = tested on: AML cell lines (MV4-11 (FLT3-ITD) and Kasumi-1 (KITmut)); test: Apoptosis, AnnexinV and PI flow cytometry; format: cell-based; conditions: 25 and 50 μM for 48 hours
Description: as §2, §3
Referring to FIG. 36, a flow cytometry analysis of AML cell lines treated with PRMT5 inhibitor and stained for cell surface markers AnnexinV and PI indicates a dose-dependent increase in the percentage of apoptotic and dead cells when compared to DMSO-treated cells. Induction of programmed cell death was stronger in the FLT3-ITD AML cell line MV4-11.

multiple cell lines = test: Proliferation of multiple cell lines (FIG. 59); format: cell-based; conditions: FIG. 59A-E
Description: Proliferation of multiple cell lines was evaluated for CMPD 5, CMPD 7, HLCL61, HLCL-65, and HLCL-66 (FIG. 59A-E).

AML cell lines = test: MTS growth inhibition assay, summary over cell lines; format: cell-based
Description: Clonogenic assays were set up by plating 1×10^3 cell/mL in semi-solid methylcellulose medium (MethoCult, Stem Cell Technologies). Colonies were counted after 10-14 days using an inverted microscope. Growth inhibition assays were measured using a colorimetric MTS assay: 5×10^4 cells were plated in 100 μL final volume in a 96-well plate in the presence of different concentrations of C12 for 24, 48 and 72 hours at 37° C. Afterwards, 20 μL of the CellTiter 96W AQueous One Solution Reagent, which contains tetrazolium compound [3-(4,5-[…])-5-(3-carboxymethoxyphenyl)-2-(4-sulfophenyl)-2H-tetrazolium, inner salt; MTS] and an electron coupling reagent (phenazine ethosulfate; PES) (Promega, Madison Wis.), was added to each well. Within 1-4 hours of incubation at 37° C., the optical density at 490 and 690 nm was measured. Cell viability was calculated with respect to the control samples and reference background wavelength at 690 nm. At least three independent experiments were performed. […]
Referring to FIGS. 34A and 34B, a colorimetric MTS assay was used to measure the proliferation rate of AML cell lines and primary blasts from patients after 48 hours incubation with a PRMT5 inhibitor compound (HLCL61 or C12). The dose-dependent decrease in absorbance indirectly correlates with the number of metabolically active live cells. […]

T1 sequence (O14744 whole entry): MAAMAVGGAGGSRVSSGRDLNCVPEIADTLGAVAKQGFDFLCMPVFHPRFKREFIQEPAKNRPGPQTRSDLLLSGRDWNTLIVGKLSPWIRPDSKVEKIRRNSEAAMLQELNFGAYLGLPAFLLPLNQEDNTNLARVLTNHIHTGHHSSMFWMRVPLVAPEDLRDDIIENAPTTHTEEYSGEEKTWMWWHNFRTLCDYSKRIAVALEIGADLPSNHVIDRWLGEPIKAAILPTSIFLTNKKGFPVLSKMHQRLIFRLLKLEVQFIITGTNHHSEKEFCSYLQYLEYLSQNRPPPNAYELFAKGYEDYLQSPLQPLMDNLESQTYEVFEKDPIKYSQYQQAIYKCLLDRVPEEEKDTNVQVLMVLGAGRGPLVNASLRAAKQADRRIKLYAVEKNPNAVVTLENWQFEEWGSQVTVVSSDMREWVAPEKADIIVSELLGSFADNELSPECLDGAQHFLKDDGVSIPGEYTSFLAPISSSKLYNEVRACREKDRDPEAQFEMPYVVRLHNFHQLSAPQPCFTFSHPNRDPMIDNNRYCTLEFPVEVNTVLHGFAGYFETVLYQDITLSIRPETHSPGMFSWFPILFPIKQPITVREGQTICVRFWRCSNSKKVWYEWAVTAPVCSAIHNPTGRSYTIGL
T1 sequence (Q9BQA1 whole entry partner): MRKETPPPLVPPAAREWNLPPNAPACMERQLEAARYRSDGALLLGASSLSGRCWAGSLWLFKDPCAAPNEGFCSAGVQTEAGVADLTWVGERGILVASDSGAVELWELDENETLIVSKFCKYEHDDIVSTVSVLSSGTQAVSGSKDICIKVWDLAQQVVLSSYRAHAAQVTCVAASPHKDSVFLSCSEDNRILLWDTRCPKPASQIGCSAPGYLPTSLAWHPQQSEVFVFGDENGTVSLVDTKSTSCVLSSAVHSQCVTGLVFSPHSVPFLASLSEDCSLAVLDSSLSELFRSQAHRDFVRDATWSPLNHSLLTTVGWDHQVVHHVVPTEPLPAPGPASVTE

Which “inhibition of PRMT5 enzyme” value ([1]; 10 μM, FIG. 17B) does the source give for CCn1c2ccccc2c2cc(CNCc3ccccc3OC)ccc21 [HLCL-61] here?
Its value is “the only enzyme that is affected is PRMT5”.

What about the IC50 ([1]; FIG. 16, 1-40 μM compound, HeLa S3 core histones, read-out: PRMT5 methylation activity IC50) of the same compound?
Its IC50 is about 5 µM.

What about the “inhibition of PRMT5 methylase activity, potency among inhibitors” value ([1]; listed as C12) of the same compound?
Its value is “most potent of these inhibitors”.

What about the “inhibition of PRMT5 methylase activity, potency among inhibitors” value ([1]; listed as CMPD 12) of the same compound?
Its value is “most potent in inhibiting enzymatic activity of PRMT5”.

What about the survival after dosing ([2]; IV-2.5 mg/kg, one mouse) of the same compound?
The survival after dosing was “Alive 24 hr after”.

And the survival after dosing ([2]; mouse, in vivo, ip, 50 mg/kg, 24 h)?
Its survival after dosing is “Alive 24 hr after”.

What about the “clinical signs after dosing” value ([2]; mouse, in vivo, ip, 100 mg/kg) of the same compound?
The value was “still slow moving”.

And the survival after dosing ([2]; mouse, in vivo, ip, 200 mg/kg, 24 h)?
The survival after dosing was “Dead within 30 min”.

And the survival after dosing ([2]; mouse, in vivo, iv, 5 mg/kg, 24 h)?
The survival after dosing was “Alive 24 hr after”.

And the “clinical signs after dosing (slow moving)” value ([2]; mouse, in vivo, iv, 10 mg/kg)?
The value was “dosing but slow”.

And the survival after dosing ([2]; mouse, in vivo, iv, 10 mg/kg, 24 h)?
Its survival after dosing is “Alive 24 hr after”.

And the survival after dosing ([2]; mouse, in vivo, iv, 20 mg/kg)?
Its survival after dosing is “Dead instantly after”.

What about the “increase in expression of CD11b” value [3] of the same compound?
The value was over 4 fold.

And the IC50 ([4]; 24 h incubation)?
Its IC50 is 44 µM.

And the IC50 ([4]; 48 h incubation)?
Its IC50 is 29 µM.

What about the IC50 ([4]; 72 h incubation) of the same compound?
Its IC50 is 28 µM.

What about the apoptosis [5] of the same compound?
The apoptosis was “dose-dependent increase in apoptosis”.

And the “potency, proliferation of multiple cell lines” value (multiple cell lines)?
The value was “low micromolar range”.

And the IC50 (AML cell lines; 48 h post treatment, range over AML cell lines)?
Its IC50 is 21 to 21.5 µM.

What about the “inhibition of cell proliferation” value (AML cell lines; AML cell lines and primary patients' blasts, 1 to 100 μM) of the same compound?
The value was “dose-dependent (1 to 100 μM) inhibition of cell proliferation”.
